Experimental data published in patent US7160909B2, “Cyclopenta[b]indole derivatives as sPLA2 inhibitors” (Eli Lilly and Company, priority 2001, dated 2007).

Target: T1, recombinant human secreted phospholipase A2 (Homo sapiens, UniProt P14555)
T1 sequence (P14555 21-144): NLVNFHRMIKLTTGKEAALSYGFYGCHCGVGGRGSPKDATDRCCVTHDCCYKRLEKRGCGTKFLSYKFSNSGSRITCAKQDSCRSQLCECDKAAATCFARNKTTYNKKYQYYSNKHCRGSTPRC
Experiment: chromogenic assay of recombinant human secreted phospholipase A2
Assay type: biochemical
Details: diheptanoyl thio-PC substrate, pH 7.5, 40° C. for 30 minutes, absorbance at 405 nanometers, triplicate
Text: The following chromogenic assay procedure was used to identify and evaluate inhibitors of recombinant human secreted phospholipase A2. The assay described herein has been adapted for high volume screening using 96 well microtiter plates. A general description of this assay method is found in the article, “Analysis of Human Synovial Fluid Phospholipase A2 on Short Chain Phosphatidylcholine-Mixed Micelles: Development of a Spectrophotometric Assay Suitable for a Microtiterplate Reader”, by Laure J. Reynolds, Lori L. Hughes, and Edward A Dennis, Analytical Biochemistry, 204, pp. 190–197, 1992 (the disclosure of which is incorporated herein by reference): […]
A measured volume of racemic dipheptanoyl thio PC supplied in chloroform at a concentration of 100 mg/ml is taken to dryness and redissolved in 10 millimolar TRITON X-100™ nonionic detergent aqueous solution. […]
• 1. […] Read absorbance of wells at 405 nanometers with an automatic plate reader.
Tests were done in triplicate. […] Compounds initially found to be active were re-assayed to confirm their activity and, if sufficiently active, IC50 values were determined. […] In all cases, % inhibition measured at 405 nanometers generated by enzyme reactions containing inhibitors relative to the uninhibited control reactions was determined. […]

IC50: 0.046 µM
SMILES: NC(=O)C1CCc2c1c1c(OCC(=O)O)cccc1n2Cc1ccccc1 (stereo not shown) [Example 1, (4-Benzyl-1-carbamoyl-1,2,3,4-tetrahydro-cyclopenta[b]indol-8-yloxy)-acetic acid]
